Data taken from patent US20240124528A1, “ANTAGONIST OF INTERLEUKIN-17B RECEPTOR (IL-17RB) AND USE THEREOF” (Academia Sinica, priority 2020, published 2024).

Legend:
IL-17RB = assay: Immunoblotting/IP of IL-17B-induced IL-17RB signaling in CFPAC1 cells after peptide pretreatment; format: cell-based, human; details: CFPAC1 cells pretreated with peptides 30 mins, then rIL-17B 30 mins
From the text: FIGS. 7A to 7J include charts showing that disruption of the interaction between IL-17RB and MLK4 by the loop peptide blocks oncogenic progression. (FIG. 7A) Peptides TAT48-57 (Control) (SEQ ID NO: 21) and TAT-IL-17RB403-416 (Loop) (SEQ ID NO: 30) used for the following experiments. (FIG. 7B) Immunoblotting analysis of IL-17RB binding to MLK4 with Loop peptide treatment. 293T cells expressing Flag-MLK4 and HA-IL-17RB were pretreated with the control and loop peptides with different dose (0, 0.1, 1, 10, 50, 100 ng/ml) for 30 mins, and then added rIL-17B for 30 mins. The cell lysates were reciprocally co-immunoprecipitated with anti-Flag and anti-HA and blotted with the indicated antibodies or directly immunoblotted with the indicated antibodies as the input controls. (FIG. 7C to FIG. 7F) CFPAC1cells were pretreated with the peptides for 30 mins and then added rIL-17B for 30 mins. The cell lysates were immunoblotted with the indicated antibodies or immunoprecipitated with anti-IL-17RB or control IgG and blotted with the indicated antibodies (FIG. 7C). CFPAC1 cells were pretreated with TAT48-57 or TAT-IL-17RB403-416 (50 ng/ml) 30 mins and then added rIL-17B for two hrs. CCL20 and TFF/mRNA expression of these cells were measured by RT-qPCR (n=3) (FIG. 7D), the same cells were for invasion assay (n=4) (FIG. 7E) and SACF assay (n=4) (FIG. 7F). (FIG. 7G) The scheme of the treatment of transgenic pancreatic cancer EKP mice (LSL-Kras^+/G12D; p53^+/−; Ela-Cre^ERT; plus cerulein) with the Loop peptides. (FIG. 7H) IHC images of pancreases stained with anti-P-Y447 antibody. Scale bars: 50 μm. The pancreas tissues were from EKP mice after treated with the control or loop peptides at Day 42. The Kras^+/+ mice (Kras^+/+; p53^+/−; Ela-Cre^ERT; plus cerulein) were used as the non-cancerous control. Boxes indicate the enlarged areas. (FIG. 7I) The experimental EKP mice (n=7 for each group) were euthanized at Day 56, and the metastatic tumor nodules in the lungs were counted. (FIG. 7J) Kaplan-Meier survival curve plot of the lifespans of the experimental EKP mice (n=7 for each group). […]

[1] = tested on: DCs derived from mouse bone marrow; format: cell-based
Protocol: (FIG. 24A) Flow chart describing the experimental design for testing the effects of anti-IL-17RB antibody and loop peptide on IL-17E-induced expression of IL-4 and IL-13 in peripheral blood mononuclear cells (PBMCs). PBMCs were purified by Ficoll-paque and used for the following experiments. (FIG. 24B to FIG. 24E) IL-4 and IL-13 expression induced by IL-17B or IL-17E in the PBMCs was determined by RT-qPCR after mIgG or anti-IL-17RB antibody pretreatment (FIG. 24B and FIG. 24C) and control or loop peptide pretreatment (FIG. 24D and FIG. 24E), respectively. (FIG. 24F and FIG. 24G) The DCs derived from mouse bone marrow were treated with the control or loop peptides, separately. (FIG. 24F) Flow cytometry analysis using anti-CD80, CD86 and MHC-II antibodies was performed to determine the activity of the DCs after incubation with the control or loop peptides for 48 hrs. (FIG. 24G) The activities of DCs were quantified by gating the area of the CD80, CD86 and MHC-II-positive cells (n=3). Data are mean±s.d.

Sequence: RKKRRQRRRVCDGTCGKSEGSPS (IL-17RB inhibitory peptide, fusion protein) [loop peptide]
- ERK1/2 phosphorylation induced by IL-17B (IL-17RB): abolished
- tyrosine phosphorylation of IL-17RB induced by IL-17B (IL-17RB): abolished
- ubiquitination of IL-17RB induced by IL-17B (IL-17RB): abolished
- bone marrow-derived dendritic cell activation (CD80, CD86, MHC-II) [1]: does not suppress IL-17E-induced IL-4 and IL-13 mRNA expression in PBMCs or affect
